Reference: patent US11925612B2, “Bactericidal and virucidal pharmaceutical composition” (Quimica Luar SRL, priority 2015, dated 2024)
Where two headings read alike, the source gives them in different places.

Assays:
[1] = tested on: artificial biofilm of P. aeruginosa; assay: Antimicrobial effect on artificial biofilm (2% alginate solution); assay type: cell-based, Pseudomonas aeruginosa; settings: Biofilm (2% alginate) + ionic strength (1 M NaCl), 4 hours at 37° C., control 2,000,000, Example 21
Procedure: Work consisted of incubating bacterial populations of a known load in terms of CFU/mL with the compounds mentioned in different molar concentrations. In vitro test batteries were organized at different doses or concentrations and in 1.5 mL Eppendorf tubes without the addition of culture medium. To this purpose, a PBS 100 mM phosphate buffer was used to maintain physiological conditions throughout the period of each test at 37° C. […] Each plate was added with 5 uL of a solution of 2,3,5-metabolic dye triphenyltetrazolium of chloride (TTC) 1% to enhance the contrast of colonies. Plates were incubated in inverted position, in a culture stove for 24-48 hours at 37° C. and subsequently the direct count was done, adjusted by dilution factors and seeding to report results in terms of CFU/mL. […] Treatments lasted 4 hours at 37° C.

[2] = tested on: P. aeruginosa; assay: Bactericidal test: CFU count after incubation in PBS buffer; assay type: cell-based, Pseudomonas aeruginosa
[3] = tested on: Burkhordelia cepacia; assay type: cell-based; settings: 4 h incubation at 37° C., control 130,000, Example 10
Procedure: In this case, tests were run on a non-nutritive liquid carrier (buffer solution) wherein the antimicrobial agent is mixed with quantified inocula of pure bacterial cultures. After different incubation times, the material is seeded on agar plates to perform quantification assays on the number of bacterias surviving the treatment.
When the time for each assay finished, aliquots of 100 uL and decimal dilutions of each tube which were seeded on petri dishes for the direct count of colony forming units (CFU) in Mueller Hinton agar (MHA), using pour-plating or spread-plating standard methods.
During testing, the medium was stored in thermostatic bath between 45-50° C. because the seeding technique requires imbibing and integrating bacteria in the medium.

[4] = tested on: BVDV bovine diarrhea virus; assay type: cell-based; settings: Ibuprofen at 50 mM, virus incubated 60 minutes at 37° C.
[5] = tested on: Herpes Simplex 1 virus (HSV); assay type: cell-based; settings: Ibuprofen at 50 mM, virus incubated 60 minutes at 37° C.
[6] = tested on: Rubella virus strain (MV); assay type: cell-based; settings: Ibuprofen at 50 mM, virus incubated 60 minutes at 37° C.
[7] = tested on: vesicular stomatitis virus (VSV); assay type: cell-based; settings: Ibuprofen at 50 mM, virus incubated 60 minutes at 37° C.
[8] = solubilised in water; cited from earlier work

NC[C@H]1O[C@H](O[C@H]2[C@H](O)[C@@H](O[C@H]3O[C@H](CO)[C@@H](O)[C@H](N)[C@H]3O)[C@H](N)C[C@@H]2N)[C@H](N)C[C@@H]1O [Tobramycin, tobramycin]
P. aeruginosa (UFC/mL ± 10) ([1]; 5 mM): 10 UFC/mL
P. aeruginosa (UFC/mL ± 10) ([1]; 10 mM): 10 UFC/mL
P. aeruginosa (UFC/mL ± 10) ([2]; Tobramycin 0.25 mM with ClNa (1M), 4 h at 37° C., control 1,000,000, Example 20): 400,000 UFC/mL
P. aeruginosa (UFC/mL ± 10) ([2]; Tobramycin 1 mM with ClNa (1M), 4 h at 37° C., control 1,000,000, Example 20): 10 UFC/mL
P. aeruginosa (UFC/mL ± 10) ([2]; Tobramycin 1 mM, 1 hour, 37° C., control 2,000,000, Example 19): 1,000,000 UFC/mL
P. aeruginosa (UFC/mL ± 10) ([2]; Tobramycin 1 mM, 4 hours, 37° C., control 2,000,000, Example 19): 30,000 UFC/mL
P. aeruginosa (UFC/mL ± 10) ([2]; Tobramycin 1 mM, O.N., 37° C., control 2,000,000, Example 19): 30,000 UFC/mL
P. aeruginosa (UFC/mL ± 10) ([2]; Tobramycin 2.5 mM, 1 hour, 37° C., control 2,000,000, Example 19): 60,000 UFC/mL
P. aeruginosa (UFC/mL ± 10) ([2]; Tobramycin 2.5 mM, 4 hours, 37° C., control 2,000,000, Example 19): 20,000 UFC/mL
P. aeruginosa (UFC/mL ± 10) ([2]; Tobramycin 2.5 mM, O.N., 37° C., control 2,000,000, Example 19): 10 UFC/mL
P. aeruginosa (UFC/mL ± 10) ([2]; Tobramycin 5 mM with ClNa (1M), 4 h at 37° C., control 1,000,000, Example 20): 10 UFC/mL
P. aeruginosa (UFC/mL ± 10) ([2]; Tobramycin 5 mM, 1 hour, 37° C., control 2,000,000, Example 19): 30,000 UFC/mL
P. aeruginosa (UFC/mL ± 10) ([2]; Tobramycin 5 mM, 4 hours, 37° C., control 2,000,000, Example 19): 1,000 UFC/mL
P. aeruginosa (UFC/mL ± 10) ([2]; Tobramycin 5 mM, O.N., 37° C., control 2,000,000, Example 19): 10 UFC/mL
P. aeruginosa (UFC/mL ± 10) ([2]; Tobramycin 10 mM with ClNa (1M), 4 h at 37° C., control 1,000,000, Example 20): 10 UFC/mL
P. aeruginosa (UFC/mL ± 10) ([2]; Tobramycin 10 mM, 1 hour, 37° C., control 2,000,000, Example 19): 1,000 UFC/mL
P. aeruginosa (UFC/mL ± 10) ([2]; Tobramycin 10 mM, 4 hours, 37° C., control 2,000,000, Example 19): 10 UFC/mL
P. aeruginosa (UFC/mL ± 10) ([2]; Tobramycin 10 mM, O.N., 37° C., control 2,000,000, Example 19): 10 UFC/mL

COc1ccc2cc([C@H](C)C(=O)O)ccc2c1 [Naproxen]
B. cepacia (UFC/mL ± 10) ([3]; Naproxen 10 mM): 125,000 UFC/mL
B. cepacia (UFC/mL ± 10) ([3]; Naproxen 25 mM): 38,000 UFC/mL
B. cepacia (UFC/mL ± 10) ([3]; Naproxen 50 mM): 31,000 UFC/mL
B. cepacia (UFC/mL ± 10) ([3]; Naproxen 100 mM): 1,300 UFC/mL

CC(C)Cc1ccc(C(C)C(=O)O)cc1 (centres unmarked) [IBU-H, PROTONATED IBUPROFEN]
P. aeruginosa (UFC/mL ± 10) ([2]; IBU 10 mM, 4 h at 37° C., control 1,700,000, Example 4): 480,000 UFC/mL
P. aeruginosa (UFC/mL ± 10) ([2]; IBU 20 mM, 4 h at 37° C., control 1,700,000, Example 4): 200,000 UFC/mL
P. aeruginosa (UFC/mL ± 10) ([2]; IBU 50 mM, 4 h at 37° C., control 1,700,000, Example 4): 1000 UFC/mL
P. aeruginosa (UFC/mL ± 10) ([2]; IBU 100 mM, 4 h at 37° C., control 1,700,000, Example 4): 10 UFC/mL

[Cl-].[Na+] [NaCl]
P. aeruginosa (UFC/mL ± 10) ([2]; NaCl 0.01 M, 4 hours at 37° C., control 2,000,000, Example 11): 2,000,000 UFC/mL
P. aeruginosa (UFC/mL ± 10) ([2]; NaCl 0.025 M, 4 hours at 37° C., control 2,000,000, Example 11): 2,000,000 UFC/mL
P. aeruginosa (UFC/mL ± 10) ([2]; NaCl 0.1 M, 4 hours at 37° C., control 2,000,000, Example 11): 2,000,000 UFC/mL
P. aeruginosa (UFC/mL ± 10) ([2]; NaCl 0.25 M, 4 hours at 37° C., control 2,000,000, Example 11): 1,800,000 UFC/mL
P. aeruginosa (UFC/mL ± 10) ([2]; NaCl 0.5 M (line between 0.025 and 0.1), 4 hours at 37° C., control 2,000,000, Example 11): 2,000,000 UFC/mL
P. aeruginosa (UFC/mL ± 10) ([2]; NaCl 0.5 M (line between 0.25 and 1), 4 hours at 37° C., control 2,000,000, Example 11): 1,600,000 UFC/mL
P. aeruginosa (UFC/mL ± 10) ([2]; NaCl 1 M, 4 hours at 37° C., control 2,000,000, Example 11): 1,000,000 UFC/mL

CC(C)Cc1ccc(C(C)C(=O)O)cc1 (centres unmarked) [Ibuprofen, ibuprofen]
Reduction of viral level [4]: >6.5 TCID50 mL-1
Reduction of viral level [5]: >6.9 TCID50 mL-1
Reduction of viral level [6]: >5.0 TCID50 mL-1
Reduction of viral level [7]: >7.7 TCID50 mL-1
critical micelle concentration (CMC) [8]: about 180 mM
